doi:10.1101/2024.08.19.608619, “Discovery of potent SARS-CoV-2 nsp3 macrodomain inhibitors uncovers lack of translation to cellular antiviral response” (bioRxiv, 2024)
Values joined by “and” are separate entries in the source; they are usually repeats but may differ in a detail not shown here. Equal entries are not always repeated.

test system: not listed separately; test: Hepatic microsomal stability, HLM; type: in vitro ADME, human; conditions: In vitro human liver microsomal stability

| SMILES | clint | perc_remaining | t_half |
| --- | --- | --- | --- |
| CC(C)[C@H](Nc1ncnc2[nH]c(-c3cnn(C)c3C#N)cc12)c1ccc2c(n1)OCCO2 [ASAP-0010715] | 17.0 µL/min/mg | 78.0% | 100.0 min |

same assay, conditions: In vitro human liver microsomal stability; no cofactor

| SMILES | perc_remaining_no_cofactor |
| --- | --- |
| CC(C)[C@H](Nc1ncnc2[nH]c(-c3cnn(C)c3C#N)cc12)c1ccc2c(n1)OCCO2 [ASAP-0010715] | 116.0% |

test system: not listed separately; test: In vitro rat hepatocyte stability; type: in vitro ADME; conditions: not given
Excerpt: Supplement media-1.zip/Hepatocyte_Stability.csv, table | column: clint; t_half

| SMILES | clint | t_half |
| --- | --- | --- |
| CC(C)[C@H](Nc1ncnc2[nH]c(-c3cnn(C)c3C#N)cc12)c1ccc2c(n1)OCCO2 [ASAP-0010715] | 87.5 uL/min/1E6 cells | 7.92 min |

test system: CYP; test: CYP inhibition; type: in vitro ADME; conditions: isoform 1A2; In vitro CYP inhibition pooled
Excerpt: Supplement media-1.zip/CYP_Inhibition.csv, table | column: ic50; potency

| SMILES | IC50 |
| --- | --- |
| CC(C)[C@H](Nc1ncnc2[nH]c(-c3cnn(C)c3C#N)cc12)c1ccc2c(n1)OCCO2 [ASAP-0010715] | 35.2 µM |

same assay, conditions: isoform 1A2; In vitro CYP inhibition pooled; potency class in words

| SMILES | potency |
| --- | --- |
| CC(C)[C@H](Nc1ncnc2[nH]c(-c3cnn(C)c3C#N)cc12)c1ccc2c(n1)OCCO2 [ASAP-0010715] | weak |

same assay, conditions: isoform 2C9; In vitro CYP inhibition pooled

| SMILES | IC50 |
| --- | --- |
| CC(C)[C@H](Nc1ncnc2[nH]c(-c3cnn(C)c3C#N)cc12)c1ccc2c(n1)OCCO2 [ASAP-0010715] | 5.93 µM |

same assay, conditions: isoform 2C9; In vitro CYP inhibition pooled; potency class in words

| SMILES | potency |
| --- | --- |
| CC(C)[C@H](Nc1ncnc2[nH]c(-c3cnn(C)c3C#N)cc12)c1ccc2c(n1)OCCO2 [ASAP-0010715] | moderate |

same assay, conditions: isoform 2C19; In vitro CYP inhibition pooled

| SMILES | IC50 |
| --- | --- |
| CC(C)[C@H](Nc1ncnc2[nH]c(-c3cnn(C)c3C#N)cc12)c1ccc2c(n1)OCCO2 [ASAP-0010715] | 16.9 µM |

same assay, conditions: isoform 2C19; In vitro CYP inhibition pooled; potency class in words

| SMILES | potency |
| --- | --- |
| CC(C)[C@H](Nc1ncnc2[nH]c(-c3cnn(C)c3C#N)cc12)c1ccc2c(n1)OCCO2 [ASAP-0010715] | weak |

same assay, conditions: isoform 2D6; In vitro CYP inhibition pooled

| SMILES | IC50 |
| --- | --- |
| CC(C)[C@H](Nc1ncnc2[nH]c(-c3cnn(C)c3C#N)cc12)c1ccc2c(n1)OCCO2 [ASAP-0010715] | 27.7 µM |

same assay, conditions: isoform 2D6; In vitro CYP inhibition pooled; potency class in words

| SMILES | potency |
| --- | --- |
| CC(C)[C@H](Nc1ncnc2[nH]c(-c3cnn(C)c3C#N)cc12)c1ccc2c(n1)OCCO2 [ASAP-0010715] | weak |

same assay, conditions: isoform 3A4; In vitro CYP inhibition pooled

| SMILES | IC50 |
| --- | --- |
| CC(C)[C@H](Nc1ncnc2[nH]c(-c3cnn(C)c3C#N)cc12)c1ccc2c(n1)OCCO2 [ASAP-0010715] | 3.69 µM |

same assay, conditions: isoform 3A4; In vitro CYP inhibition pooled; potency class in words

| SMILES | potency |
| --- | --- |
| CC(C)[C@H](Nc1ncnc2[nH]c(-c3cnn(C)c3C#N)cc12)c1ccc2c(n1)OCCO2 [ASAP-0010715] | moderate |

target: T1, alpha2A (h) (Homo sapiens, UniProt P08913); test: In vitro CEREP profiling, alpha2A (h) (antagonist radioligand); type: binding; conditions: test compound 10 uM
T1 construct: purchased Eurofins Cerep (SafetyScreen44), recognised from the panel format
T1 sequence (P08913 1-465): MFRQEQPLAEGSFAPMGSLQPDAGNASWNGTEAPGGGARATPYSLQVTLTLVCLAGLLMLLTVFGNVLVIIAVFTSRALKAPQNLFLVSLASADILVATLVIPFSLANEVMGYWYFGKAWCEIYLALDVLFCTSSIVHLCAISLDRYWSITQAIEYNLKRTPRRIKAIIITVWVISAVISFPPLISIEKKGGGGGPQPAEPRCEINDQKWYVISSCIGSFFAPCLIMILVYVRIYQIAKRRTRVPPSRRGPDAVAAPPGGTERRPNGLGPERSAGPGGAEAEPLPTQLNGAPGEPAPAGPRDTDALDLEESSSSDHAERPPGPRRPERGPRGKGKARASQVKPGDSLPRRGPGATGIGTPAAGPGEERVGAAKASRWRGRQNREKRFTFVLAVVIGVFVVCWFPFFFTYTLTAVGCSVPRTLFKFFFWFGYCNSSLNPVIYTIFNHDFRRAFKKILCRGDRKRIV
Excerpt: (§1) Supplement media-1.zip/Safety_Panel_Profile.csv, table | column: perc_inhibition

| SMILES | perc_inhibition (% inhibition of the binding of a ligand specific for each target) |
| --- | --- |
| CC(C)[C@H](Nc1ncnc2[nH]c(-c3cnn(C)c3C#N)cc12)c1ccc2c(n1)OCCO2 [ASAP-0010715] | 7% |

target: T2, COX2(h) (Homo sapiens, UniProt P35354); test: In vitro CEREP profiling, COX2(h); type: biochemical; conditions: test compound concentration 10 uM; Enzyme and Cell-based assays
T2 construct: purchased Eurofins Cerep (SafetyScreen44), recognised from the panel format
T2 sequence (P35354 18-604): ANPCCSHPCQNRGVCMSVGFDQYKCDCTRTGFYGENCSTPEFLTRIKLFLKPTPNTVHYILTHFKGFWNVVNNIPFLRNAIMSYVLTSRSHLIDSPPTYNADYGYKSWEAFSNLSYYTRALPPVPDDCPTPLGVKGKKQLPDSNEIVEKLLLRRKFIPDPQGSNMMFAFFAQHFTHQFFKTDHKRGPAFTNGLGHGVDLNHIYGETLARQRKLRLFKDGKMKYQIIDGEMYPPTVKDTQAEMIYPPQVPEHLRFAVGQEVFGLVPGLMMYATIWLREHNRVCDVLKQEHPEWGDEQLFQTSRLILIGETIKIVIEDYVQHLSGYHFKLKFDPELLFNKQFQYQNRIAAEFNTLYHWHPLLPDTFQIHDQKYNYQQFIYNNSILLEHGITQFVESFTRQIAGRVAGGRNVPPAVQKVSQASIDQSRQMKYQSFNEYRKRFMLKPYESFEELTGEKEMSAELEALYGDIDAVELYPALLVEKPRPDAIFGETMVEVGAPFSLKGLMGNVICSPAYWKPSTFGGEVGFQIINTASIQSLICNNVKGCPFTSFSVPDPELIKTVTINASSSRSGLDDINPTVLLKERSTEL
Excerpt: as §1

| SMILES | perc_inhibition: % inhibition of control enzyme activity, COX2(h) |
| --- | --- |
| CC(C)[C@H](Nc1ncnc2[nH]c(-c3cnn(C)c3C#N)cc12)c1ccc2c(n1)OCCO2 [ASAP-0010715] | -2% |

test system: Vero E6/TMPRSS2; test: Vero E6/TMPRSS2 cytotoxicity with P-gp inhibitor; type: cell-based; conditions: not given
Excerpt: Supplement media-1.zip/Cytotoxicity.csv, table | column: cc10; cc50; perc_min_measured; perc_max_measured

| SMILES | CC50 | cc10 |
| --- | --- | --- |
| CC(C)[C@H](Nc1ncnc2[nH]c(-c3cnn(C)c3C#N)cc12)c1ccc2c(n1)OCCO2 [ASAP-0010715] | > 5 µM | > 5.0 µM |

same assay, conditions: highest measured response of the dose series

| SMILES | perc_max_measured |
| --- | --- |
| CC(C)[C@H](Nc1ncnc2[nH]c(-c3cnn(C)c3C#N)cc12)c1ccc2c(n1)OCCO2 [ASAP-0010715] | 109.412% |

same assay, conditions: lowest measured response of the dose series

| SMILES | perc_min_measured |
| --- | --- |
| CC(C)[C@H](Nc1ncnc2[nH]c(-c3cnn(C)c3C#N)cc12)c1ccc2c(n1)OCCO2 [ASAP-0010715] | 72.414% |

target: T3, beta1 (h) (Homo sapiens, UniProt P08588); test: In vitro CEREP profiling, beta1 (h) (agonist radioligand); type: binding; conditions: test compound 10 uM
T3 construct: purchased Eurofins Cerep (SafetyScreen44), recognised from the panel format
T3 sequence (P08588 whole entry): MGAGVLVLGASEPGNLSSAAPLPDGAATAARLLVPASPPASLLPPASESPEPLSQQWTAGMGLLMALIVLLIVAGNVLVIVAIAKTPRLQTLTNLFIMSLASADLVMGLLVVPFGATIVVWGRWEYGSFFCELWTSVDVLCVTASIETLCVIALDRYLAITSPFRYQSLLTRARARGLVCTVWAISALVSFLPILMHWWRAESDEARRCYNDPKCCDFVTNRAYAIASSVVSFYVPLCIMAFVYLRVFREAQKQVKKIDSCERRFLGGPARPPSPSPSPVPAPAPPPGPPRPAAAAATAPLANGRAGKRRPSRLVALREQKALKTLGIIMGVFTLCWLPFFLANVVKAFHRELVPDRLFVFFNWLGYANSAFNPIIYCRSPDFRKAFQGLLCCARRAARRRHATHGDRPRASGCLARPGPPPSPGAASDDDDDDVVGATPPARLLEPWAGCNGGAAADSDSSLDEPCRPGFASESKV
Excerpt: as §1

| SMILES | perc_inhibition (% inhibition of the binding of a ligand specific for each target) |
| --- | --- |
| CC(C)[C@H](Nc1ncnc2[nH]c(-c3cnn(C)c3C#N)cc12)c1ccc2c(n1)OCCO2 [ASAP-0010715] | 11% |

target: T4, PDE3A (h) (Homo sapiens, UniProt Q14432); test: In vitro CEREP profiling, PDE3A (h); type: biochemical; conditions: test compound concentration 10 uM; Enzyme and Cell-based assays
T4 construct: purchased Eurofins Cerep (SafetyScreen44), recognised from the panel format
T4 sequence (Q14432 whole entry): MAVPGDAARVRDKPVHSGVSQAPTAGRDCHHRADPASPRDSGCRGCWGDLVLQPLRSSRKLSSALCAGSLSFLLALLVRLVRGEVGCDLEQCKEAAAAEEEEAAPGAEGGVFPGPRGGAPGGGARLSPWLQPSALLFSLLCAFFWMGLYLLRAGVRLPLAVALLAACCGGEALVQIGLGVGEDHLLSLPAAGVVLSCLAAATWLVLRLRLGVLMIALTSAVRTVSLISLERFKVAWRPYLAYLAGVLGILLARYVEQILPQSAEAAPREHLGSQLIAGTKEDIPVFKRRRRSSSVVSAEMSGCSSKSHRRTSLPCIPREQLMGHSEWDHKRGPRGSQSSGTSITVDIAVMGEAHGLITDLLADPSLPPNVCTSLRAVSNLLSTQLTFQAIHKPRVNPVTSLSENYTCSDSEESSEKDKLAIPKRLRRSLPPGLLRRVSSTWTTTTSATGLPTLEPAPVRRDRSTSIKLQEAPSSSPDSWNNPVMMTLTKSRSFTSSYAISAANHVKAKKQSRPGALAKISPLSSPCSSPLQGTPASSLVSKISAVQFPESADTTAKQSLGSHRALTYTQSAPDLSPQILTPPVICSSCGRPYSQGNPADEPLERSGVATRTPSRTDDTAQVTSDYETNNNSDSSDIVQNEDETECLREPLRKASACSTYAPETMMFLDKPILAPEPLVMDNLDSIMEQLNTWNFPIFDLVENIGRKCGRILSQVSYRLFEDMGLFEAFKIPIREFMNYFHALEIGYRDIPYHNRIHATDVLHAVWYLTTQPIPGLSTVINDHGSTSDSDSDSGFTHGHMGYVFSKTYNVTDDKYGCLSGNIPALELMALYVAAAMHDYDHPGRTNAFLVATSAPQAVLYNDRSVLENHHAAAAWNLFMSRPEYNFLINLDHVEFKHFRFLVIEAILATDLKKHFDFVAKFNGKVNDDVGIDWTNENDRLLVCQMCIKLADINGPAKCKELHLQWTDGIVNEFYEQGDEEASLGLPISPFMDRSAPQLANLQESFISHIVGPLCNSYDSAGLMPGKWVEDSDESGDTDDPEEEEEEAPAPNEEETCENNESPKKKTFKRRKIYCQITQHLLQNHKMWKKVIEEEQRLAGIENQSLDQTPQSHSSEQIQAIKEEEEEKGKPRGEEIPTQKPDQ
Excerpt: as §1

| SMILES | perc_inhibition: % inhibition of control enzyme activity, PDE3A (h) |
| --- | --- |
| CC(C)[C@H](Nc1ncnc2[nH]c(-c3cnn(C)c3C#N)cc12)c1ccc2c(n1)OCCO2 [ASAP-0010715] | 37% |

target: T5, PDE4D2 (h) (Homo sapiens, UniProt Q08499); test: In vitro CEREP profiling, PDE4D2 (h); type: biochemical; conditions: test compound concentration 10 uM; Enzyme and Cell-based assays
T5 construct: purchased Eurofins Cerep (SafetyScreen44), recognised from the panel format
T5 sequence (Q08499 303-809): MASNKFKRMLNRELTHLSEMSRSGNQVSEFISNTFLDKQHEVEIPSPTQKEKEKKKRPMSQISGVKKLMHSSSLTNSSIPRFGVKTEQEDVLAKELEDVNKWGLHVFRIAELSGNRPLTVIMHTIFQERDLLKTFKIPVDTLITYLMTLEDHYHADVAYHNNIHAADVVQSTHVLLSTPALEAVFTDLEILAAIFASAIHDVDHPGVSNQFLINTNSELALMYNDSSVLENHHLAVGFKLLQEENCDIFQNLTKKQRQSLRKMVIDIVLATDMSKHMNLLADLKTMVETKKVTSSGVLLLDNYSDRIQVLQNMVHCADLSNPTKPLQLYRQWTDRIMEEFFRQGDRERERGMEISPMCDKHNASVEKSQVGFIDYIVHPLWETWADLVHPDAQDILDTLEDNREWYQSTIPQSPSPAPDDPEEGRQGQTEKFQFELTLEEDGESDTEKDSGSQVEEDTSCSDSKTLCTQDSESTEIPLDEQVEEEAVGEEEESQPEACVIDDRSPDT
Excerpt: as §1

| SMILES | perc_inhibition: % inhibition of control enzyme activity, PDE4D2 (h) |
| --- | --- |
| CC(C)[C@H](Nc1ncnc2[nH]c(-c3cnn(C)c3C#N)cc12)c1ccc2c(n1)OCCO2 [ASAP-0010715] | 70% |

target: T6, Lck kinase (h) (Homo sapiens, UniProt P06239); test: In vitro CEREP profiling, Lck kinase (h); type: biochemical; conditions: test compound concentration 10 uM; Enzyme and Cell-based assays
T6 construct: purchased Eurofins Cerep (SafetyScreen44), recognised from the panel format
T6 sequence (P06239 whole entry): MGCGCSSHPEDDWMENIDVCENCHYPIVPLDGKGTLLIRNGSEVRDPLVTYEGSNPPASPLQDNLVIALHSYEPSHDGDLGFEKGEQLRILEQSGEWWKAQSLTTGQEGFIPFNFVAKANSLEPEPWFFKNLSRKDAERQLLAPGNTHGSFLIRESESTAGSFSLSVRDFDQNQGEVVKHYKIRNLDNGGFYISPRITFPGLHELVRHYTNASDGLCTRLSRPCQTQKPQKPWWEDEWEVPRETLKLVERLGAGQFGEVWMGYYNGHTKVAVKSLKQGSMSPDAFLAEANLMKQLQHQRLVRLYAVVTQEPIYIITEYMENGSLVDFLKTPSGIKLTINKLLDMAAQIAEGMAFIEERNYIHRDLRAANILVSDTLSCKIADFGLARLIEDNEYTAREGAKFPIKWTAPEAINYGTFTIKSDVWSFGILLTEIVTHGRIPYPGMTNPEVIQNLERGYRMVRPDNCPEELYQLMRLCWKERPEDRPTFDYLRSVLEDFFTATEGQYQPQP
Excerpt: as §1

| SMILES | perc_inhibition: % inhibition of control enzyme activity, Lck kinase (h) |
| --- | --- |
| CC(C)[C@H](Nc1ncnc2[nH]c(-c3cnn(C)c3C#N)cc12)c1ccc2c(n1)OCCO2 [ASAP-0010715] | 20% |

test system: Ca2+ channel (L, dihydropyridine site); test: In vitro CEREP profiling, Ca2+ channel (L, dihydropyridine site) (antagonist radioligand); type: binding; conditions: test compound concentration 10 uM
Excerpt: as §1

| SMILES | perc_inhibition (% inhibition of the binding of a ligand specific for each target) |
| --- | --- |
| CC(C)[C@H](Nc1ncnc2[nH]c(-c3cnn(C)c3C#N)cc12)c1ccc2c(n1)OCCO2 [ASAP-0010715] | 9% |

target: T7, Potassium Channel hERG (human) (Homo sapiens, UniProt Q12809); test: In vitro CEREP profiling, Potassium Channel hERG (human)- [3H] Dofetilide; type: binding; conditions: test compound concentration 10 uM
T7 construct: purchased Eurofins Cerep (SafetyScreen44), recognised from the panel format
T7 sequence (Q12809 whole entry): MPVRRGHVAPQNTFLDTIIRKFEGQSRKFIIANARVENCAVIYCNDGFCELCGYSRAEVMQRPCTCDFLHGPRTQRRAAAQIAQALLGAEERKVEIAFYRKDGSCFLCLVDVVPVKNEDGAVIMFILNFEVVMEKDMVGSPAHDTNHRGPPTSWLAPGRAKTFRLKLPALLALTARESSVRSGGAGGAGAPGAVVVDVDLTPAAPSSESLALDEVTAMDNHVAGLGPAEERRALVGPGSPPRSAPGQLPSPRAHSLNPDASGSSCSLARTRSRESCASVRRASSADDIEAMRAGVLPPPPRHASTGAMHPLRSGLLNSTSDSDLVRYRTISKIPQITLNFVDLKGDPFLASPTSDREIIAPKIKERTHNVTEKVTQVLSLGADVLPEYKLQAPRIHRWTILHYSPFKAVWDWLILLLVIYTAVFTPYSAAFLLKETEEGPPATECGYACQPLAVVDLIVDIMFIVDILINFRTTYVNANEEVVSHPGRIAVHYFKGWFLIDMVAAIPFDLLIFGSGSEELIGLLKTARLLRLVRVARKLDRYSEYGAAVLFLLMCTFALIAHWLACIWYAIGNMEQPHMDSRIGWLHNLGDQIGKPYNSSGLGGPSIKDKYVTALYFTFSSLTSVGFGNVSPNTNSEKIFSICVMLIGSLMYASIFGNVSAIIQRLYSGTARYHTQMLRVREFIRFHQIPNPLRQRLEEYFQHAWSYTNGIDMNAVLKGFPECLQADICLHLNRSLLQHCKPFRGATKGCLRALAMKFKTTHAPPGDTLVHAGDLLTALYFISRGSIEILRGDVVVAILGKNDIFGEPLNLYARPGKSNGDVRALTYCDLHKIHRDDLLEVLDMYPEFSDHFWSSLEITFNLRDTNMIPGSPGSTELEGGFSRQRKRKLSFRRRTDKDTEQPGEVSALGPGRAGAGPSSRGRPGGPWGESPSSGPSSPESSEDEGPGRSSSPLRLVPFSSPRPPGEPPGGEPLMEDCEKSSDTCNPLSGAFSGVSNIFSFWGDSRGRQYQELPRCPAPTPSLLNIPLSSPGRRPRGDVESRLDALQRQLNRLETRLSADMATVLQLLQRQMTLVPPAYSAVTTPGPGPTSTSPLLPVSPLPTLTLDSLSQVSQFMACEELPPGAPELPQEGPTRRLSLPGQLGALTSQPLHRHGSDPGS
Excerpt: as §1

| SMILES | perc_inhibition (% inhibition of the binding of a ligand specific for each target) |
| --- | --- |
| CC(C)[C@H](Nc1ncnc2[nH]c(-c3cnn(C)c3C#N)cc12)c1ccc2c(n1)OCCO2 [ASAP-0010715] | 29% |

target: hERG (Homo sapiens, UniProt Q12809); test: In vitro hERG cardiotoxocity; conditions: top test concentration 30 uM
Sequence (Q12809 whole entry): as above
Excerpt: Supplement media-1.zip/Cardiotoxicity.csv, table | column: ic50; perc_inhibition_top_conc

| SMILES | IC50 |
| --- | --- |
| CC(C)[C@H](Nc1ncnc2[nH]c(-c3cnn(C)c3C#N)cc12)c1ccc2c(n1)OCCO2 [ASAP-0010715] | 11 µM |

test system: KV channel; test: In vitro CEREP profiling, KV channel (antagonist radioligand); type: binding; conditions: test compound concentration 10 uM
Excerpt: as §1

| SMILES | perc_inhibition (% inhibition of the binding of a ligand specific for each target) |
| --- | --- |
| CC(C)[C@H](Nc1ncnc2[nH]c(-c3cnn(C)c3C#N)cc12)c1ccc2c(n1)OCCO2 [ASAP-0010715] | 0% |

test system: Na+ channel (site 2); test: In vitro CEREP profiling, Na+ channel (site 2) (antagonist radioligand); type: binding; conditions: test compound concentration 10 uM
Excerpt: as §1

| SMILES | perc_inhibition (% inhibition of the binding of a ligand specific for each target) |
| --- | --- |
| CC(C)[C@H](Nc1ncnc2[nH]c(-c3cnn(C)c3C#N)cc12)c1ccc2c(n1)OCCO2 [ASAP-0010715] | 10% |

test system: MERS-CoV; test: microbe, parasite or virus in culture; type: cell-based; conditions: Vero E6/TMPRSS2 MERS-CoV antiviral effect with P-gp inhibitor; maximum measured response of dose series

| SMILES | perc_max_measured |
| --- | --- |
| CC(C)[C@H](Nc1ncnc2[nH]c(-c3cnn(C)c3C#N)cc12)c1ccc2c(n1)OCCO2 [ASAP-0010715] | 122.135% and 106.633% |

same assay, conditions: Vero E6/TMPRSS2 MERS-CoV antiviral effect with P-gp inhibitor; minimum measured response of dose series

| SMILES | perc_min_measured |
| --- | --- |
| CC(C)[C@H](Nc1ncnc2[nH]c(-c3cnn(C)c3C#N)cc12)c1ccc2c(n1)OCCO2 [ASAP-0010715] | 93.468% and 72.24% |

same assay, conditions: Vero E6/TMPRSS2 MERS-CoV antiviral effect with P-gp inhibitor; read-out: ec50

| SMILES | EC50 |
| --- | --- |
| CC(C)[C@H](Nc1ncnc2[nH]c(-c3cnn(C)c3C#N)cc12)c1ccc2c(n1)OCCO2 [ASAP-0010715] | > 5 µM |

same assay, conditions: Vero E6/TMPRSS2 MERS-CoV antiviral effect with P-gp inhibitor; read-out: ec90

| SMILES | EC90 |
| --- | --- |
| CC(C)[C@H](Nc1ncnc2[nH]c(-c3cnn(C)c3C#N)cc12)c1ccc2c(n1)OCCO2 [ASAP-0010715] | > 5 µM |
